In paper PMC7321382, “Synthesis and Antibacterial Analysis of Analogues of the Marine Alkaloid Pseudoceratidine” (Molecules, 2020):
Values after ≈ are worked out from the molar mass of the structure shown.

Assays:
S. aureus 16207 = assay: Antibacterial MIC, broth microdilution, S. aureus; assay type: cell-based, Staphylococcus aureus; conditions: Gram-positive, 24 h incubation, highest concentration tested 32 µM; for MIC: Staphylococcus aureus, 16207
Method: (§1) The MIC was determined using the broth microdilution method. Mueller Hinton (MH) broth base was prepared in milli-Q water, then autoclaved at 120 °C for 1 h before allowing it to cool to room temperature. A single colony of each bacterial strain (E. coli DH5α and S. aureus 16207) was inoculated in MHB and incubated at 37 °C overnight. Overnight cultures were adjusted to 10^6 CFU/mL in MHB according to the McFarland Standard,100 μL of which was further diluted to a total of 10 mL in the media. The stock solutions of the compounds were prepared at 12.8 mM in purified DMSO. The stock solutions were further diluted in milli-Q water to 64 μM in 0.5% DMSO for testing against S. aureus, and 256 μM in 2% DMSO for testing against E. coli. Compounds that were not soluble in these solvent mixtures were further diluted in half to get clear solutions for the bioassay. DMSO is known to have weak antibacterial activity. To exclude the antibacterial effect of DMSO from the results, a solution of 2% DMSO in milli-Q water was used as an additional control in the experiments. The compounds and three controls (the natural product pseudoceratidine 1 for both strains, streptomycin for S. aureus, and polymyxin B for E. coli) then underwent a dilution series. The assay was performed by adding 50 μL of each compound solution at the different concentrations and 50 μL of the diluted bacterial culture to the different wells of a 96-well microtiter plate. The experiments were performed at least thrice and in triplicates. MIC after 24 h of incubation was determined by both visual inspection and absorbance at 600 nm using an EnSpire Multimode plate reader.

[1] = tested on: HEK293 human embryonic kidney cells; assay: Cytotoxicity, sulforhodamine B cell proliferation assay; assay type: cell-based; conditions: for relative growth of HEK293 cells (% of untreated control) at 16 µM: Homo sapiens, 72 h, 16 µM compound, 3 days, relative to control with no treatment, mean ± SD of triplicates; for cytotoxic activity (in words): HEK293, at concentrations 2–4 times the MIC (16 µM)
Method: As described previously, cell proliferation was measured by sulforhodamine B colorimetric assay in which 2000 HEK293 human embryonic kidney cells were seeded in 96-well plates in the presence of varying concentrations of drugs. The sulforhodamine B colorimetric assay, which is based on the measurement of cellular protein content, was used to measure cell density. After drug treatment for 3 days, cells were fixed with 10% (w/v) trichloroacetic acid and stained with 0.057% (w/v) sulforhodamine B for 30 min, and the excess dye was removed by washing repeatedly with 1% (v/v) acetic acid. The protein-bound dye was dissolved in Tris base solution (10 mM) for optical density determination at 510 nm using a microplate reader. All experiments were done in triplicate, and were repeated at least twice. The optimal cell densities were previously determined to select initial cell densities that ensured that the cells were in the logarithmic phase for the experiments.

E. coli DH5α = assay: Antibacterial MIC, broth microdilution, E. coli; assay type: cell-based, Escherichia coli; conditions: for MIC: Escherichia coli, Gram-negative, 24 h incubation, highest concentration tested 128 µM, † lower starting concentration due to insolubility
Method: as §1

HepG2 liver cell line = tested on: HepG2 liver cell line; set-up: method as in PMID 29297684; conditions: compared with HEK293 result; cited from earlier work
Candida albicans = tested on: Candida albicans; set-up: method as in doi:10.1016/S0960-894X(96)00622-1, doi:10.1016/S0040-4020(98)00340-8, doi:10.1016/0040-4039(96)01310-X; conditions: anti-fungal; cited from earlier work
Escherichia coli = tested on: Escherichia coli; set-up: method as in doi:10.1016/S0960-894X(96)00622-1, doi:10.1016/S0040-4020(98)00340-8, doi:10.1016/0040-4039(96)01310-X; conditions: Gram-negative; cited from earlier work
Balanus amphitrite = tested on: Balanus amphitrite; set-up: method as in doi:10.1016/0040-4039(96)00025-1; conditions: marine larval organism Balanus amphitrite; cited from earlier work
Plasmodium falciparum = tested on: Plasmodium falciparum; set-up: method as in PMID 29297684; conditions: anti-malarial; cited from earlier work
Staphylococcus aureus = tested on: Staphylococcus aureus; set-up: method as in doi:10.1016/S0960-894X(96)00622-1, doi:10.1016/S0040-4020(98)00340-8, doi:10.1016/0040-4039(96)01310-X; conditions: Gram-positive; cited from earlier work
Listeria monocytogenes = tested on: Listeria monocytogenes; set-up: method as in doi:10.1016/S0960-894X(96)00622-1, doi:10.1016/S0040-4020(98)00340-8, doi:10.1016/0040-4039(96)01310-X; conditions: Gram-positive; cited from earlier work
Pseudomonas aeruginosa = tested on: Pseudomonas aeruginosa; set-up: method as in doi:10.1016/S0960-894X(96)00622-1, doi:10.1016/S0040-4020(98)00340-8, doi:10.1016/0040-4039(96)01310-X; conditions: Gram-negative; cited from earlier work

Structure (SMILES)	MIC S. Aureus (S. aureus 16207) [µM]	MIC (S. aureus 16207) [µM]	MIC (E. coli DH5α) [µM]	melting point [°C]	relative growth of HEK293 cells (% of untreated control) at 16 µM [1] [%]	activity against Gram-negative bacteria compared with 1 (in words) (E. coli DH5α)	cytotoxic activity (in words) [1]	cytotoxicity versus HepG2 (in words) (HepG2 liver cell line)	MIC Candida albicans (Candida albicans) [µg/mL]	MIC Escherichia coli (Escherichia coli) [µg/mL]	EC50 antifouling (Balanus amphitrite) [µg/mL]	EC50 (Plasmodium falciparum) [µM]	MIC Staphylococcus aureus (Staphylococcus aureus) [µg/mL]	MIC Listeria monocytogenes (Listeria monocytogenes) [µg/mL]	MIC Pseudomonas aeruginosa (Pseudomonas aeruginosa) [µg/mL]
O=C(NCCCNCCCNC(=O)c1cc(Br)c(Br)[nH]1)c1cc(Br)c(Br)[nH]1 [Compound 14e]	8 to 16	8 to 16 (≈ 5.06 to 10.1 µg/mL)	32 to 64 (≈ 20.3 to 40.5 µg/mL)	135 to 137	1.1 ± 0.9										
O=C(NCCCCCCNCCCCCCNC(=O)c1cc(Cl)c(Cl)[nH]1)c1cc(Cl)c(Cl)[nH]1 [Compound 15c]	4 to 8	4 to 8 (≈ 2.16 to 4.31 µg/mL)	32 to 64 (≈ 17.3 to 34.5 µg/mL)	189 to 190	1.8 ± 2										
O=C(NCCCCCCNCCCCCCNC(=O)c1cc(Br)c(Br)[nH]1)c1cc(Br)c(Br)[nH]1 [Compound 15e]	4 to 8	4 to 8 (≈ 2.87 to 5.74 µg/mL)	16 to 32 (≈ 11.5 to 22.9 µg/mL)		1.3 ± 0.8										
O=C(NCCCNCCCNCCCNC(=O)c1cc(Cl)c(Cl)[nH]1)c1cc(Cl)c(Cl)[nH]1 [Compound 18c]	4 to 8	4 to 8 (≈ 2.05 to 4.1 µg/mL)	32 to 64 (≈ 16.4 to 32.8 µg/mL)	109 to 111	98 ± 4.5		almost no cytotoxic activity								
O=C(NCCCNCCCCNCCCNC(=O)c1cc(Cl)c(Cl)[nH]1)c1cc(Cl)c(Cl)[nH]1 [Compound 19c]	4 to 8	4 to 8 (≈ 2.11 to 4.21 µg/mL)	128 to 256 (≈ 67.4 to 135 µg/mL)	110 to 112	1.6 ± 2										
O=C(NCCCNCCCCNCCCNC(=O)c1cc(Br)c(Br)[nH]1)c1cc(Br)c(Br)[nH]1 [Compound 19e]	2 to 4	2 to 4 (≈ 1.41 to 2.82 µg/mL)	32 to 64 (≈ 22.5 to 45.1 µg/mL)		94.5 ± 5.9		almost no cytotoxic activity	far less toxic							
CC(C)(C)OC(=O)NCCCNC(=O)c1cc(I)c[nH]1 [Compound 28f]		> 32	> 128	128 to 130											

Now from value to compound, other results behind:

MIC S. Aureus (S. aureus 16207) [µM]	MIC (S. aureus 16207) [µM]	MIC (E. coli DH5α) [µM]	melting point [°C]	Structure (SMILES)	relative growth of HEK293 cells (% of untreated control) at 16 µM [1] [%]	activity against Gram-negative bacteria compared with 1 (in words) (E. coli DH5α)	cytotoxic activity (in words) [1]	cytotoxicity versus HepG2 (in words) (HepG2 liver cell line)	MIC Candida albicans (Candida albicans) [µg/mL]	MIC Escherichia coli (Escherichia coli) [µg/mL]	EC50 antifouling (Balanus amphitrite) [µg/mL]	EC50 (Plasmodium falciparum) [µM]	MIC Staphylococcus aureus (Staphylococcus aureus) [µg/mL]	MIC Listeria monocytogenes (Listeria monocytogenes) [µg/mL]	MIC Pseudomonas aeruginosa (Pseudomonas aeruginosa) [µg/mL]
8 to 16	8 to 16 (≈ 3.64 to 7.28 µg/mL)	64 to 128 (≈ 29.1 to 58.3 µg/mL)	189 to 190	O=C(NCCCNCCCNC(=O)c1cc(Cl)c(Cl)[nH]1)c1cc(Cl)c(Cl)[nH]1 [Compound 14c]	0.5 ± 0.3										
16 to 32	16 to 32 (≈ 7.06 to 14.1 µg/mL)	32 to 64 (≈ 14.1 to 28.2 µg/mL)	133 to 135	O=C(NCCCNCCNC(=O)c1cc(Cl)c(Cl)[nH]1)c1cc(Cl)c(Cl)[nH]1 [Compound 16c]	2.5 ± 1.8	equivalents activity to 1									
8 to 16	8 to 16 (≈ 4.95 to 9.9 µg/mL)	64 to 128 (≈ 39.6 to 79.2 µg/mL)	206 to 208	O=C(NCCCNCCNC(=O)c1cc(Br)c(Br)[nH]1)c1cc(Br)c(Br)[nH]1 [Compound 16e]	2.6 ± 2										
2 to 4	2 to 4 (≈ 1.38 to 2.76 µg/mL)	32 to 64 (≈ 22.1 to 44.2 µg/mL)		O=C(NCCCNCCCNCCCNC(=O)c1cc(Br)c(Br)[nH]1)c1cc(Br)c(Br)[nH]1 [Compound 18e]	2.1 ± 1.5										
8 to 16	8 to 16 (≈ 5.18 to 10.4 µg/mL)	32 to 64 (≈ 20.7 to 41.4 µg/mL)		O=C(NCCCCNCCCNC(=O)c1cc(Br)c(Br)[nH]1)c1cc(Br)c(Br)[nH]1 [Pseudoceratine 1, pseudoceratidine]	0.7 ± 0.8				32 (≈ 49.5 µM)	32 (≈ 49.5 µM)	8 (≈ 12.4 µM)	1	4 (≈ 6.18 µM)	5 (≈ 7.73 µM)	128 (≈ 198 µM)
